Test systems include TK-10 renal; SW-620 colon; NCI-H23 lung; HCT-116 colon; UACC-257 melanoma; SK-MEL-2 melanoma; K-562 leukemia; SK-MEL-28 melanoma; MDA-N; SF-539 CNS.
What all share (test): DTP human tumour cell line panel, 48 h

The structures appear in SMILES notation. “And” between values parts separate entries of the source, which are not always exact repeats. Equal values may be shown once.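 The compound was tested at five concentrations on cells cultured in 96-well plates, with a 48-hour exposure period. GI50: concentration for 50% inhibition of growth. TGI: concentration producing complete growth inhibition.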 *1 amine or outer side, *2 acyl side, *3 side chain or, on linkers, in order; H or OH if unused. Where a SMILES comes first, the peptide text is derived from it. [ ]: non-standard residue; d: D form. The star is where a group is joined. X12 = NCCCCC(N[*:1])C(=O)CN1CCCC1C(=O)[*:2]; Pentadecanoyl = CCCCCCCCCCCCCCC(=O)*

13 compounds from PubChem BioAssay (NCI) can be followed below.

As a reminder, the TGI is the concentration at which net growth stops. Higher therefore signals less potent growth arrest. For `Cc1cnc2cc(Cl)ccc2c1SCC(=O)O`, the TGI in the assay with TK-10 renal, in the assay with SW-620 colon, in the assay on NCI-H23 lung, in the assay with HCT-116 colon, in the assay with UACC-257 melanoma and in the assay on SK-MEL-2 melanoma was over 100 µM in each case. The TGI in the assay on K-562 leukemia, in the assay on SK-MEL-28 melanoma and with MDA-N was over 100 µM throughout.

On to `[O-][n+]1cc(SCc2ccccc2)ncc1SCc1ccccc1`, for which the TGI with TK-10 renal, in the assay on NCI-H23 lung, in the assay on HCT-116 colon, with UACC-257 melanoma, with SK-MEL-2 melanoma and in the assay with K-562 leukemia was over 10 µM throughout. Also, the TGI in the assay on SK-MEL-28 melanoma and in the assay with SF-539 CNS was over 10 µM each time.

As to `CC1[C@@H]2C[C@@H]3O[C@@]34[C@H]3CCC5Cc6nc7c(nc6C[C@@]5(C)C3(O)CC(=O)[C@@]24CO[C@]12OC(C)(C)CC2O)CC1CC[C@@H]2C3=C[C@H]4O[C@@]5(O[C@@](C)(CO)C[C@@H]5O)C(C)[C@@]4(O)[C@]3(C)[C@@H](O)CC2[C@]1(C)C7` (some centres undefined), the TGI with SW-620 colon was 0.49 µM; with NCI-H23 lung, 0.467 µM; in the assay on HCT-116 colon, over 3.52 µM; in the assay with UACC-257 melanoma, over 3.52 µM; with SK-MEL-2 melanoma, 0.863 µM; in the assay on K-562 leukemia, 0.666 µM. The compound further displayed a TGI in the assay with SF-539 CNS of 0.115 µM.

In the case of `C[S+](C)C1(c2ccccc2)C(=O)c2ccccc2C1=O`, the TGI in the assay with TK-10 renal was over 100 µM; with SW-620 colon, over 100 µM; with NCI-H23 lung, over 100 µM; in the assay with HCT-116 colon, over 100 µM; in the assay with UACC-257 melanoma, over 100 µM; in the assay on SK-MEL-2 melanoma, over 73.2 µM. In addition, the TGI was over 100 µM in the assay on K-562 leukemia, over 100 µM in the assay on SK-MEL-28 melanoma and over 68.1 µM in the assay with SF-539 CNS.

With `O=c1cc(-c2ccccc2)[nH]c2c(F)ccc(F)c12`, the TGI in the assay with TK-10 renal is over 100 µM; with SW-620 colon, over 100 µM; in the assay with NCI-H23 lung, over 100 µM; with HCT-116 colon it was over 100 µM; in the assay on UACC-257 melanoma, over 100 µM; with SK-MEL-2 melanoma, 77.1 µM. Also, the TGI with K-562 leukemia, in the assay on SK-MEL-28 melanoma and with SF-539 CNS was over 100 µM in each case.

Turning to `NS(=O)(=O)c1ccc(NS(=O)(=O)c2ccc(NC(=O)N(c3ccccc3)c3ccccc3)cc2)cc1`, the TGI with TK-10 renal, in the assay with SW-620 colon, with NCI-H23 lung, in the assay on HCT-116 colon, in the assay on UACC-257 melanoma and in the assay on SK-MEL-2 melanoma was over 100 µM each time. Further, the TGI with K-562 leukemia, in the assay with SK-MEL-28 melanoma and in the assay with MDA-N was over 100 µM throughout.

What is called GI50 is the concentration giving 50% growth inhibition. As for `CCCCCCCCCCCCCCC(=O)NC(CCCCN)C(=O)CN1CCCC1C(=O)NCC(=O)NC(Cc1ccccc1)C(=O)N1CCCC1C(=O)NC(CO)C(=O)NC(Cc1ccc(O)cc1)C(=O)NC(CCCCN)C(=O)NC(CC(C)C)C(=O)NC(CCCN=C(N)N)C(=O)N1CCCC1C(=O)NCC(N)=O` (centres undefined) (Pentadecanoyl-[X12]GFPSYKLRPG-NH2; configuration not given here), the GI50 with TK-10 renal is 11.7 µM; with SW-620 colon, 29.9 µM; in the assay on NCI-H23 lung, 21.7 µM; with HCT-116 colon, 14.2 µM; in the assay on UACC-257 melanoma, 29.5 µM; in the assay on SK-MEL-2 melanoma, 37.5 µM. Further, the figures for the GI50 with K-562 leukemia, with SK-MEL-28 melanoma and with SF-539 CNS were 19.5 µM, 25.7 µM and 27.2 µM, respectively. Moreover, the TGI in the assay with TK-10 renal is 32.9 µM; in the assay with SW-620 colon, 80.9 µM; in the assay on NCI-H23 lung it was 49.6 µM; with HCT-116 colon, 29.6 µM; with UACC-257 melanoma, 52.1 µM; in the assay with SK-MEL-2 melanoma, over 100 µM. Further, the results for the TGI with K-562 leukemia, in the assay with SK-MEL-28 melanoma and in the assay on SF-539 CNS were 40 µM, 60.6 µM and 59.9 µM, respectively.

As for `COc1cccc2c1C(=O)c1c(O)c3c(c(O)c1C2=O)C[C@@](O)(C(=O)CO)CC3OC1CC(NCCCCC(OC(C)=O)OC(C)=O)C(O)C(C)O1` (some centres undefined), the TGI in the assay with TK-10 renal was over 1 µM; with SW-620 colon it was over 1 µM; in the assay on NCI-H23 lung, 0.00237 µM; in the assay with UACC-257 melanoma, 0.00798 µM; with SK-MEL-2 melanoma it was 0.00435 µM and 0.00331 µM; in the assay on K-562 leukemia it was 0.00466 µM. The TGI with SF-539 CNS is 0.00421 µM and 0.0374 µM. In addition, the GI50 was 0.00175 µM with SW-620 colon; 0.000808 µM with NCI-H23 lung; 0.00286 µM in the assay on UACC-257 melanoma; 0.00171 µM with SK-MEL-2 melanoma; 0.000522 µM in the assay with K-562 leukemia; 0.00296 µM with SF-539 CNS.

In the case of `CN(C)CCSc1nccc(-c2ccc(-c3ccnc(SCCN(C)C)n3)s2)n1`, the TGI in the assay on SW-620 colon stood at 18.1 µM; in the assay on NCI-H23 lung, 28.3 µM; with HCT-116 colon, 13.1 µM; in the assay on UACC-257 melanoma, 31.1 µM; in the assay on SK-MEL-2 melanoma, 29.5 µM; in the assay with K-562 leukemia it was 23.2 µM. Also, the TGI was determined as 36.2 µM with SK-MEL-28 melanoma and 20.4 µM in the assay on SF-539 CNS.

Consider `N#Cc1nc(C(=O)c2ccccc2)oc1N`, for which the TGI in the assay with TK-10 renal, in the assay with SW-620 colon, in the assay with HCT-116 colon, with UACC-257 melanoma, in the assay on SK-MEL-2 melanoma and with K-562 leukemia was over 100 µM each time. For the same compound, the TGI with SK-MEL-28 melanoma and in the assay with MDA-N was over 100 µM each time.

`C/C(=N/OCCC(=O)O)C1CC1`: the TGI in the assay with TK-10 renal, with SW-620 colon, in the assay with NCI-H23 lung, with HCT-116 colon, in the assay on SK-MEL-2 melanoma and in the assay with K-562 leukemia was over 100 µM throughout. In addition, the TGI in the assay with SK-MEL-28 melanoma and in the assay on SF-539 CNS was over 100 µM each time.

Take `COc1ccc(OC)c([N+](=O)[O-])c1-c1nc2sc(C)cn2c1/C=N/N=C(N)N`: the TGI in the assay with TK-10 renal is 43.3 µM; with SW-620 colon, over 100 µM; in the assay with NCI-H23 lung it was 66 µM; with HCT-116 colon, over 100 µM; in the assay on UACC-257 melanoma, 47 µM; in the assay on SK-MEL-2 melanoma it was 60.2 µM. For the same compound, the TGI in the assay with K-562 leukemia was 28.7 µM; in the assay with SK-MEL-28 melanoma, 43.5 µM; with SF-539 CNS, over 100 µM.

Consider `Oc1cccc(-c2cn3cc(Cl)ccc3n2)c1`, for which the TGI with TK-10 renal is over 100 µM; in the assay with SW-620 colon it was over 100 µM; with NCI-H23 lung, over 100 µM; in the assay with HCT-116 colon, over 100 µM; in the assay on UACC-257 melanoma, 77.5 µM; in the assay with SK-MEL-2 melanoma it was over 100 µM. The TGI in the assay on K-562 leukemia, in the assay with SK-MEL-28 melanoma and in the assay on MDA-N was over 100 µM each time.
